Calls of active or inactive are those of the source. How the calls were made is not given here.
Test system: rodent carcinogenicity bioassays, tumor incidence
Assay: CCRIS carcinogenicity studies
How it was run: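 NCI-built, expert-reviewed records of carcinogenicity and related test outcomes (mutagenicity, tumor promotion/inhibition) compiled from published and report sources, historical span 1985-2011, not updated.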

SMILES: Nc1ccn([C@H]2CC[C@@H](CO)O2)c(=O)n1
- carcinogen call (Species: MOUSE, Strain/Sex: B6C3F1/FEMALE, Route: GAVAGE, Dose: 0, 500, 1000 MG/KG BW A DAY FOR 6 MO (STUDY DURATION: 6 MO), Dose: 0, 500, 1000 MG/KG BW A DAY FOR 6 MO (STUDY DURATION: 6 MO), Tumor Site: Type of Lesion: THYMUS: LYMPHOMA): active; positive
- carcinogen call (Species: MOUSE, Strain/Sex: B6C3F1/FEMALE, Route: GAVAGE, Dose: 0, 500, 1000 MG/KG/D FOR 13 WK (STUDY DURATION: 13 WK), Dose: 0, 500, 1000 MG/KG/D FOR 13 WK (STUDY DURATION: 13 WK)): inactive; negative
- carcinogen call (Species: MOUSE, Strain/Sex: B6C3F1/FEMALE, Route: GAVAGE, Dose: 0, 500, 1000 MG/KG/D FOR 13 WK FOLLOWED BY 4 WK OF RECOVERY (STUDY DURATION: 17 WK), Dose: 0, 500, 1000 MG/KG/D FOR 13 WK FOLLOWED BY 4 WK OF RECOVERY (STUDY DURATION: 17 WK)): inactive; negative
- carcinogen call (Species: MOUSE, Strain/Sex: B6C3F1/FEMALE, Route: GAVAGE, Dose: 0, 500, 1000 MG/KG/D FOR 13 WK FOLLOWED BY 13 WK FOR RECOVERY (STUDY DURATION: 26 WK), Dose: 0, 500, 1000 MG/KG/D FOR 13 WK FOLLOWED BY 13 WK FOR RECOVERY (STUDY DURATION: 26 WK), Tumor Site: Type of Lesion: THYMUS: LYMPHOMA): active; positive
- carcinogen call (Species: MOUSE, Strain/Sex: B6C3F1/FEMALE, Route: GAVAGE, Dose: 0, 1000 MG/KG BW A DAY FOR 3 MO FOLLOWED BY A 3-MO RECOVERY PERIOD (STUDY DURATION: 6 MO), Tumor Site: Type of Lesion: THYMUS: LYMPHOMA, SPLEEN: LYMPHOMA): active; positive
- carcinogen call (Species: MOUSE, Strain/Sex: B6C3F1/MALE, Route: GAVAGE, Dose: 0, 500, 1000 MG/KG BW A DAY FOR 6 MO (STUDY DURATION: 6 MO), Dose: 0, 500, 1000 MG/KG BW A DAY FOR 6 MO (STUDY DURATION: 6 MO), Tumor Site: Type of Lesion: THYMUS: LYMPHOMA): active; positive
- carcinogen call (Species: MOUSE, Strain/Sex: B6C3F1/MALE, Route: GAVAGE, Dose: 0, 500, 1000 MG/KG/D FOR 13 WK (STUDY DURATION: 13 WK), Dose: 0, 500, 1000 MG/KG/D FOR 13 WK (STUDY DURATION: 13 WK)): inactive; negative
- carcinogen call (Species: MOUSE, Strain/Sex: B6C3F1/MALE, Route: GAVAGE, Dose: 0, 1000 MG/KG BW A DAY FOR 3 MO FOLLOWED BY A 3 MO RECOVERY PERIOD (STUDY DURATION: 6 MO), Tumor Site: Type of Lesion: THYMUS: LYMPHOMA): active; positive
- carcinogen call (Species: MOUSE, Strain/Sex: NIH SWISS/FEMALE, Route: GAVAGE, Dose: 0, 500, 1000 MG/KG BW A DAY FOR 6 MO (STUDY DURATION: 6 MO), Dose: 0, 500, 1000 MG/KG BW A DAY FOR 6 MO (STUDY DURATION: 6 MO), Tumor Site: Type of Lesion: THYMUS: LYMPHOMA, SPLEEN: LYMPHOMA, LYMPH NODE: LYMPHOMA, Tumor Site: Type of Lesion: THYMUS: LYMPHOMA, SPLEEN: LYMPHOMA, LYMPH NODE: LYMPHOMA): active; positive
- carcinogen call (Species: MOUSE, Strain/Sex: NIH SWISS/FEMALE, Route: GAVAGE, Dose: 0, 1000 MG/KG BW A DAY FOR 3 MO FOLLOWED BY A 3-MO RECOVERY PERIOD (STUDY DURATION: 6 MO), Tumor Site: Type of Lesion: THYMUS: LYMPHOMA, SPLEEN: LYMPHOMA, LYMPH NODE: LYMPHOMA, Tumor Site: Type of Lesion: THYMUS: LYMPHOMA, SPLEEN: LYMPHOMA, LYMPH NODE: LYMPHOMA): active; positive
- carcinogen call (Species: MOUSE, Strain/Sex: NIH SWISS/MALE, Route: GAVAGE, Dose: 0, 500, 1000 MG/KG BW A DAY FOR 6 MO (STUDY DURATION: 6 MO), Dose: 0, 500, 1000 MG/KG BW A DAY FOR 6 MO (STUDY DURATION: 6 MO), Tumor Site: Type of Lesion: THYMUS: LYMPHOMA): active; positive
- carcinogen call (Species: MOUSE, Strain/Sex: NIH SWISS/MALE, Route: GAVAGE, Dose: 0, 1000 MG/KG BW A DAY FOR 3 MO FOLLOWED BY A 3-MO RECOVERY PERIOD (STUDY DURATION: 6 MO), Tumor Site: Type of Lesion: THYMUS: LYMPHOMA): active; positive

SMILES: C1=Cc2cc3ccccc3c3cccc1c23
- carcinogen call (Species: MOUSE, Strain/Sex: BLU:HA/FEMALE, Route: INTRAPERITONEAL, Dose: 0, 175, 437.5 UG/KG/D ON DAYS 1 (1/7 TOTAL DOSE), 8 (2/7 TOTAL DOSE), AND 15 (4/7 TOTAL DOSE) AFTER BIRTH (STUDY DURATIO, Dose: 0, 175, 437.5 UG/KG/D ON DAYS 1 (1/7 TOTAL DOSE), 8 (2/7 TOTAL DOSE), AND 15 (4/7 TOTAL DOSE) AFTER BIRTH (STUDY DURATIO): inactive; negative
- carcinogen call (Species: MOUSE, Strain/Sex: BLU:HA/MALE, Route: INTRAPERITONEAL, Dose: 0, 175, 437.5 UG/KG/D ON DAYS 1 (1/7 TOTAL DOSE), 8 (2/7 TOTAL DOSE), AND 15 (4/7 TOTAL DOSE) AFTER BIRTH (STUDY DURATIO, Dose: 0, 175, 437.5 UG/KG/D ON DAYS 1 (1/7 TOTAL DOSE), 8 (2/7 TOTAL DOSE), AND 15 (4/7 TOTAL DOSE) AFTER BIRTH (STUDY DURATIO, Tumor Site: Type of Lesion: LUNG: ADENOMA): active; positive
- carcinogen call (Species: MOUSE, Strain/Sex: CD-1/FEMALE, Route: INTRAPERITONEAL, Dose: 0, 175, 437.5, 875 UG/KG/D ON DAYS 1 (1/7 TOTAL DOSE), 8 (2/7 TOTAL DOSE), AND 15 (4/7 TOTAL DOSE) AFTER BIRTH (STUDY DU, Dose: 0, 175, 437.5, 875 UG/KG/D ON DAYS 1 (1/7 TOTAL DOSE), 8 (2/7 TOTAL DOSE), AND 15 (4/7 TOTAL DOSE) AFTER BIRTH (STUDY DU): inactive; negative
- carcinogen call (Species: MOUSE, Strain/Sex: CD-1/MALE, Route: INTRAPERITONEAL, Dose: 0, 175, 437.5, 875 UG/KG/D ON DAYS 1 (1/7 TOTAL DOSE), 8 (2/7 TOTAL DOSE), AND 15 (4/7 TOTAL DOSE) AFTER BIRTH (STUDY DU, Dose: 0, 175, 437.5, 875 UG/KG/D ON DAYS 1 (1/7 TOTAL DOSE), 8 (2/7 TOTAL DOSE), AND 15 (4/7 TOTAL DOSE) AFTER BIRTH (STUDY DU, Tumor Site: Type of Lesion: LUNG: ADENOMA OR ADENOCARCINOMA, LIVER: TUMOR): active; positive

SMILES: O=C1OC2(c3ccccc31)c1ccc(O)c(Br)c1Oc1c2ccc(O)c1Br
- carcinogen call (Species: MOUSE, Strain/Sex: ICR/FEMALE, Route: DERMAL, Dose: 0, 1 MG IN 0.1 ML DISTILLED WATER 2/WK FOR A MEAN TOTAL DOSE OF 136.5 MG (STUDY DURATION: 18 MO)): inactive; negative
- carcinogen call (Species: MOUSE, Strain/Sex: ICR/MALE, Route: DERMAL, Dose: 0, 1 MG IN 0.1 ML DISTILLED WATER 2/WK FOR A MEAN TOTAL DOSE OF 136.5 MG (STUDY DURATION: 18 MO)): inactive; negative

SMILES: O=[N+]([O-])c1ccc(Cl)cc1
- carcinogen call (Species: MOUSE, Strain/Sex: CD-1/MALE,FEMALE, Route: ORAL, Tumor Site: Type of Lesion: BLOOD VESSELS): active; positive

SMILES: Nc1nc(-c2ccc([N+](=O)[O-])o2)cs1
- carcinogen call (Species: RAT, Strain/Sex: F344/FEMALE, Route: ORAL, Dose: 0.166% IN DIET FOR 52 WK, Tumor Site: Type of Lesion: FORESTOMACH: PAPILLOMA, CARCINOMA, URINARY BLADDER: PAPILLOMA, CARCINOMA): active; positive
- carcinogen call (Species: RAT, Strain/Sex: F344/MALE,FEMALE, Route: SUBCUTANEOUS, Dose: 10 MG/KG IN DMSO:WATER 1/WK FOR 8 WK, THEN 1.4 MG/RAT 1/WK FOR 46 WK, Tumor Site: Type of Lesion: INJECTION SITE: SARCOMA): active; positive

SMILES: C/C=C/c1ccc(O)c(OC)c1
- carcinogen call (Species: Mouse, Strain/Sex: B6C3F1 /Female (50/Group), Route: Oral, Dose: 0, 75, 150, 300 mg/kg in corn oil, by gavage, 5 d/wk for 2 yr, Dose: 0, 75, 150, 300 mg/kg in corn oil, by gavage, 5 d/wk for 2 yr): inactive; negative. (authors describe as equivocal evidence based on incidence of histiocy
- carcinogen call (Species: Mouse, Strain/Sex: B6C3F1 /Male (50/Group), Route: Oral, Dose: 0, 75, 150, 300 mg/kg in corn oil, by gavage, 5 d/wk for 2 yr, Dose: 0, 75, 150, 300 mg/kg in corn oil, by gavage, 5 d/wk for 2 yr, Tumor Site: Type of Lesion: Liver: hepatocellular adenoma (24/50, 35/50, 37/50, 33/50), hepatocellular carcinoma (8/50, 18/50, 19/50, 18/50), hepato, Tumor Site: Type of Lesion: Liver: hepatocellular adenoma (24/50, 35/50, 37/50, 33/50), hepatocellular carcinoma (8/50, 18/50, 19/50, 18/50), hepato): active; positive. (authors describe as clear evidence)
- carcinogen call (Species: Rat, Strain/Sex: F344/N / Female (50/Group), Route: Oral, Dose: 0, 75, 150, 300 mg/kg in corn oil, by gavage, 5 d/wk for 2 yr, Dose: 0, 75, 150, 300 mg/kg in corn oil, by gavage, 5 d/wk for 2 yr): inactive; negative
- carcinogen call (Species: Rat, Strain/Sex: F344/N / Male (50/Group), Route: Oral, Dose: 0, 75, 150, 300 mg/kg in corn oil, by gavage, 5 d/wk for 2 yr, Dose: 0, 75, 150, 300 mg/kg in corn oil, by gavage, 5 d/wk for 2 yr): inactive; negative. (authors describe as equivocal evidence based on incidence of thymoma,
